Common to all, as to type: functional
Common to all, as to settings: read-out: ED50 (the source's name)

For one assay, the system named is MCF7. Description: Cytotoxicity against human MCF7 cells.
Another assay concerns Lu1. In words: Cytotoxicity against human Lu1 cells.
Another assay concerns LNCaP. Description: Cytotoxicity against human LNCAP cells.

Three compounds from ChEMBL document CHEMBL1151188, “Cytotoxic withaphysalins from the leaves of Acnistus arborescens” (2004) can be followed below.

Converted amounts (≈) assume the structure as drawn.

On to `CC1=C(C)C(=O)O[C@@H]([C@]2(C)OC(=O)[C@]34CC[C@H]5[C@@H](C[C@H]6O[C@]67[C@@H](O)C=CC(=O)[C@]57C)[C@@H]3CC[C@H]24)C1` (relative stereo) [WITHAPHYSALIN M], for which the EC50 in the assay with MCF7 came out at 1.2 µg/mL (≈ 2.49 µM); with Lu1 it was 0.22 µg/mL (≈ 0.456 µM); in the assay on LNCaP it was 1 µg/mL (≈ 2.07 µM).

For `CCOC1O[C@@](C)([C@H]2CC(C)=C(C)C(=O)O2)[C@H]2CC[C@H]3[C@@H]4C[C@H]5O[C@]56[C@@H](O)C=CC(=O)[C@]6(C)[C@H]4CC[C@]123` (relative stereo) [WITHAPHYSALIN O], the EC50 worked out at 1 µg/mL (≈ 1.95 µM) in the assay with MCF7, 0.16 µg/mL (≈ 0.312 µM) in the assay on Lu1 and 0.9 µg/mL (≈ 1.76 µM) in the assay on LNCaP.

On to `CC1=C(C)C(=O)O[C@@H]([C@]2(C)OC(=O)[C@]34CC[C@H]5[C@@H](C[C@H]6O[C@]67[C@@H](O)CCC(=O)[C@]57C)[C@@H]3CC[C@H]24)C1` (relative stereo) [WITHAPHYSALIN N], for which the EC50 was 15 µg/mL (≈ 31 µM) in the assay on MCF7, 9.3 µg/mL (≈ 19.2 µM) in the assay on Lu1 and above 20 µg/mL in the assay on LNCaP.
